# Source: the SangsterLogP compilation
# Experiment: not given
row,Compound,logP
1,OC1(Cn2cncn2)CCCC1Cc1ccccc1Cl (stereo not given),2.95
2,OC1(Cn2cncn2)CCCC1Cc1ccc(Cl)cc1Cl (stereo not given),3.87
3,OC1(Cn2cncn2)CCCC1Cc1c(F)c(F)c(F)c(F)c1F (stereo not given),3.16
4,OC1(Cn2cncn2)CCCC1Cc1c(F)cccc1F (stereo not given),2.6
5,OC1(Cn2cncn2)CCCC1Cc1cccc(C(F)(F)F)c1 (stereo not given),3.07
6,OC1(Cn2cncn2)CCCC1Cc1cccc(Cl)c1 (stereo not given),2.98
7,OC1(Cn2cncn2)CCCC1Cc1ccc(Cl)cc1F (stereo not given),3.27
8,OC1(Cn2cncn2)CCCC1Cc1ccc(F)cc1F (stereo not given),2.6
9,OC1(Cn2cncn2)CCCC1Cc1ccc(F)c(F)c1 (stereo not given),2.51

# Now from value to compound:
row,logP,Compound
1,2.39,OC1(Cn2cncn2)CCCC1Cc1ccc(F)cc1 (stereo not given)
2,3.11,OC1(Cn2cncn2)CCCC1Cc1ccc(Cl)cc1 (stereo not given)
3,3.07,OC1(Cn2cncn2)CCCC1Cc1ccc(C(F)(F)F)cc1 (stereo not given)
4,1.7,N#Cc1ccc(CC2CCCC2(O)Cn2cncn2)cc1 (stereo not given)

# Experiment: method code SF, from DOI: 10.1021/bk-1995-0606.ch013
row,Compound,logP
1,CCC1CCC(Cc2ccc(Cl)cc2Cl)C1(O)Cn1cncn1 (stereo not given),4.78
2,CCC1CCC(Cc2ccc(-c3ccccc3)cc2)C1(O)Cn1cncn1 (stereo not given),4.83
3,CCCOC/C(=N\c1ccc(Cl)cc1C(F)(F)F)n1ccnc1,4.5
4,OC1(Cn2cncn2)CCCC1Cc1ccccc1 (stereo not given),2.26

# Next, values leading:
row,logP,Compound
1,3.99,CC1(C)CCC(Cc2ccc(Br)cc2)C1(O)Cn1cncn1 (stereo not given)
2,4.02,CCC1CCC(Cc2ccc(Cl)cc2)C1(O)Cn1cncn1 (stereo not given)
3,3.97,CC(C)(C)c1ccc(CC2CCCC2(O)Cn2cncn2)cc1 (stereo not given)
4,4.18,CCC1CCC(Cc2ccc(Br)cc2)C1(O)Cn1cncn1 (stereo not given)
5,4.64,CC1(C)CCC(Cc2ccc(-c3ccccc3)cc2)C1(O)Cn1cncn1 (stereo not given)
6,3.27,OC1(Cn2cncn2)CCCC1Cc1ccc(Br)cc1 (stereo not given)
7,4.88,CCC1CCC(Cc2ccc(C(C)(C)C)cc2)C1(O)Cn1cncn1 (stereo not given)
8,3.16,CC1(C)CCC(Cc2ccc(Cl)c(O)c2)C1(O)Cn1cncn1 (stereo not given)
9,3.92,OC1(Cn2cncn2)CCCC1Cc1ccc(-c2ccccc2)cc1 (stereo not given)
10,3.99,CC1(C)CCC(Cc2ccc(Cl)cc2F)C1(O)Cn1cncn1 (stereo not given)
11,3.3,CCC1CCC(Cc2ccc(F)cc2)C1(O)Cn1cncn1 (stereo not given)
12,2.71,Cc1ccc(CC2CCCC2(O)Cn2cncn2)cc1 (stereo not given)
13,3.43,Cc1ccc(CC2CCC(C)(C)C2(O)Cn2cncn2)cc1 (stereo not given)
